Data reported in patent publication US10202380B2, “Pesticidally active tetracyclic derivatives with sulfur containing substituents” (Syngenta Participations AG, priority 2015, dated 2019).

Experiments:
Assay type in all cases: in vivo
Diabrotica balteata = Diabrotica balteata (Corn Root Worm); conditions: 96 h, read-out: effect in at least one of the two categories (mortality or growth inhibition)
Method: Maize sprouts placed onto an agar layer in 24-well microtiter plates were treated with aqueous test solutions prepared from 10,000 ppm DMSO stock solutions by spraying. After drying, the plates were infested with L2 larvae (6 to 10 per well). The samples were assessed for mortality and growth inhibition in comparison to untreated samples 4 days after infestation.

Euschistus heros = Euschistus heros (Neotropical Brown Stink Bug); conditions: in Glycine max, 120 h, read-out: effect in at least one of the two categories (mortality or growth inhibition)
Method: Soybean leaves on agar in 24-well microtiter plates were sprayed with aqueous test solutions prepared from 10,000 ppm DMSO stock solutions. After drying the leaves were infested with N2 nymphs. The samples were assessed for mortality and growth inhibition in comparison to untreated samples 5 days after infestation.

Myzus persicae = Myzus persicae (Green Peach Aphid): Feeding/Contact Activity; conditions: foliar, 144 h
Method: Sunflower leaf discs were placed onto agar in a 24-well microtiter plate and sprayed with aqueous test solutions prepared from 10,000 ppm DMSO stock solutions. After drying, the leaf discs were infested with an aphid population of mixed ages. The samples were assessed for mortality 6 days after infestation.

Plutella xylostella = Plutella xylostella (Diamond Back Moth); conditions: 120 h, read-out: effect in at least one of the two categories (mortality or growth inhibition)
Method: 24-well microtiter plates with artificial diet were treated with aqueous test solutions prepared from 10,000 ppm DMSO stock solutions by pipetting. After drying, the plates were infested with L2 larvae (10 to 15 per well). The samples were assessed for mortality and growth inhibition in comparison to untreated samples 5 days after infestation.

Spodoptera littoralis [1] = assay: Spodoptera littoralis (Egyptian Cotton Leaf Worm), sprayed cotton leaf discs; conditions: foliar, 72 h, read-out: control (mortality, anti-feedant effect, growth inhibition)
Method: Cotton leaf discs were placed onto agar in 24-well microtiter plates and sprayed with aqueous test solutions prepared from 10,000 ppm DMSO stock solutions. After drying the leaf discs were infested with five L1 larvae. The samples were assessed for mortality, anti-feeding effect, and growth inhibition in comparison to untreated samples 3 days after infestation. Control of Spodoptera littoralis by a test sample is given when at least one of the categories mortality, anti-feedant effect, and growth inhibition is higher than the untreated sample.

Spodoptera littoralis [2] = assay: Spodoptera littoralis (Egyptian Cotton Leaf Worm), compound in agar absorbed by lettuce roots; conditions: 144 h, read-out: effect in at least one of the three categories (mortality, anti-feeding, or growth inhibition)
Method: Test compounds were applied by pipette from 10,000 ppm DMSO stock solutions into 24-well plates and mixed with agar. Lettuce seeds were placed onto the agar and the multi well plate was dosed by another plate which contained also agar. After 7 days the compound was absorbed by the roots and the lettuce grew into the lid plate. The lettuce leaves were then cut off into the lid plate. Spodoptera eggs were pipetted through a plastic stencil onto a humid gel blotting paper and the lid plate was closed with it. The samples were assessed for mortality, anti-feedant effect and growth inhibition in comparison to untreated samples 6 days after infestation.

CCSc1c(-c2nc3cc(C(F)(F)F)n(CC)c(=O)c3n2C)sc2ccccc12 [Compound A1, 5-ethyl-2-(3-ethylsulfanylbenzothiophen-2-yl)-3-methyl-6-(trifluoromethyl)imidazo[4,5-c]pyridin-4-one]
≥ 80%: percent control (mortality or growth inhibition) at 200 ppm (Diabrotica balteata) | percent control (mortality or growth inhibition) at 200 ppm (Euschistus heros) | mortality at 200 ppm (Myzus persicae) | percent control (mortality or growth inhibition) at 200 ppm (Plutella xylostella)

CCn1c(C(F)(F)F)cc2nc(-c3sc4ccccc4c3S(=O)(=O)CC)n(C)c2c1=O [Compound A2, 5-ethyl-2-(3-ethylsulfonylbenzothiophen-2-yl)-3-methyl-6-(trifluoromethyl)imidazo[4,5-c] pyridin-4-one]
≥ 80%: percent control (mortality or growth inhibition) at 200 ppm (Diabrotica balteata) | percent control (mortality or growth inhibition) at 200 ppm (Euschistus heros) | mortality at 200 ppm (Myzus persicae) | percent control (mortality or growth inhibition) at 200 ppm (Plutella xylostella) | mortality at 200 ppm (Spodoptera littoralis [1]) | percent control (mortality, anti-feedant effect or growth inhibition) at 12.5 ppm (Spodoptera littoralis [2])
